Experimental data: patent US9169195B2, “Amides, use of amides as solvents for organic compounds, compositions and emulsions containing amides, and method for treating a plant” (AKZO NOBEL CHEMICALS INTERNATIONAL B.V., priority 2009, dated 2015)

Assay: Emulsion dilution: crystallisation of tebuconazole in emulsions, ocular inspection
Assay type: physicochemical
Parameters: key: +: no crystals visible; −: crystals visible
Details: 5° C.
Protocol: Formulations containing 250 g/l of tebuconazole was formulated together with 100 g/l of surfactant blend (CaDDBS and tristyrylphenol ethoxylate (15 EO), 50:50) and diluted to a final volume of one liter with each one of the solvents N,N-dimethyl decanamide, N-methyl-N-octyl propanamide, N-methyl-N-(2-propylheptyl) formamide or N-methyl-N-(n-decyl) formamide. Each formulation was emulsified into tap water at ambient temperature (˜22° C.) in the volume ratio (formulation:water) 1:100, 1:150, 1:200 and 1:500 dilution. The emulsions were poured into 100 ml conical glass centrifuge tubes and monitored over time at three different temperatures 5, 20 and 40° C. for observation of crystallisation of active ingredient (tebuconazole).
Crystallization was judged by ocular inspection with the naked eye, and in the table below, the following is used: […]

[1] = 3 h, formulation:tap water 1:100, 250 g/l tebuconazole
[2] = 3 h, formulation:tap water 1:150, 250 g/l tebuconazole
[3] = 3 h, formulation:tap water 1:200, 250 g/l tebuconazole
[4] = 3 h, formulation:tap water 1:500, 250 g/l tebuconazole
[5] = 6 h, formulation:tap water 1:100, 250 g/l tebuconazole
[6] = 6 h, formulation:tap water 1:150, 250 g/l tebuconazole
[7] = 6 h, formulation:tap water 1:200, 250 g/l tebuconazole
[8] = 6 h, formulation:tap water 1:500, 250 g/l tebuconazole
[9] = 12 h, formulation:tap water 1:100, 250 g/l tebuconazole
[10] = 12 h, formulation:tap water 1:150, 250 g/l tebuconazole
[11] = 12 h, formulation:tap water 1:200, 250 g/l tebuconazole
[12] = 12 h, formulation:tap water 1:500, 250 g/l tebuconazole
[13] = 24 h, formulation:tap water 1:100, 250 g/l tebuconazole
[14] = 24 h, formulation:tap water 1:150, 250 g/l tebuconazole
[15] = 24 h, formulation:tap water 1:200, 250 g/l tebuconazole
[16] = 24 h, formulation:tap water 1:500, 250 g/l tebuconazole
[17] = 36 h, formulation:tap water 1:100, 250 g/l tebuconazole
[18] = 36 h, formulation:tap water 1:150, 250 g/l tebuconazole
[19] = 36 h, formulation:tap water 1:200, 250 g/l tebuconazole
[20] = 36 h, formulation:tap water 1:500, 250 g/l tebuconazole
[21] = 48 h, formulation:tap water 1:100, 250 g/l tebuconazole
[22] = 48 h, formulation:tap water 1:150, 250 g/l tebuconazole
[23] = 48 h, formulation:tap water 1:200, 250 g/l tebuconazole
[24] = 48 h, formulation:tap water 1:500, 250 g/l tebuconazole
[25] = 72 h, formulation:tap water 1:100, 250 g/l tebuconazole
[26] = 72 h, formulation:tap water 1:150, 250 g/l tebuconazole
[27] = 72 h, formulation:tap water 1:200, 250 g/l tebuconazole
[28] = 72 h, formulation:tap water 1:500, 250 g/l tebuconazole
[29] = 96 h, formulation:tap water 1:100, 250 g/l tebuconazole
[30] = 96 h, formulation:tap water 1:150, 250 g/l tebuconazole
[31] = 96 h, formulation:tap water 1:200, 250 g/l tebuconazole
[32] = 96 h, formulation:tap water 1:500, 250 g/l tebuconazole

Structure (SMILES)	Crystallisation of tebuconazole in emulsion [1]	Crystallisation of tebuconazole in emulsion [2]	Crystallisation of tebuconazole in emulsion [3]	Crystallisation of tebuconazole in emulsion [4]	Crystallisation of tebuconazole in emulsion [5]	Crystallisation of tebuconazole in emulsion [6]	Crystallisation of tebuconazole in emulsion [7]	Crystallisation of tebuconazole in emulsion [8]	Crystallisation of tebuconazole in emulsion [9]	Crystallisation of tebuconazole in emulsion [10]	Crystallisation of tebuconazole in emulsion [11]	Crystallisation of tebuconazole in emulsion [12]	Crystallisation of tebuconazole in emulsion [13]	Crystallisation of tebuconazole in emulsion [14]	Crystallisation of tebuconazole in emulsion [15]	Crystallisation of tebuconazole in emulsion [16]	Crystallisation of tebuconazole in emulsion [17]	Crystallisation of tebuconazole in emulsion [18]	Crystallisation of tebuconazole in emulsion [19]	Crystallisation of tebuconazole in emulsion [20]	also measured
CCCCCCCCCC(=O)N(C)C [N,N-dimethyl decanamide]	+	+	+	+	+	+	+	−	+	+	−	−	+	−	−	−	+	−	−	−	Crystallisation of tebuconazole in emulsion [21]: +; Crystallisation of tebuconazole in emulsion [22]: −; Crystallisation of tebuconazole in emulsion [23]: −; Crystallisation of tebuconazole in emulsion [24]: −; Crystallisation of tebuconazole in emulsion [25]: +; Crystallisation of tebuconazole in emulsion [26]: −; Crystallisation of tebuconazole in emulsion [27]: −; Crystallisation of tebuconazole in emulsion [28]: −; Crystallisation of tebuconazole in emulsion [29]: +; Crystallisation of tebuconazole in emulsion [30]: −; Crystallisation of tebuconazole in emulsion [31]: −; Crystallisation of tebuconazole in emulsion [32]: −
CCCCCC(CCC)CN(C)C=O (centres unmarked) [N-methyl-N-(2-propylheptyl) formamide, N-methyl-N-(2-propylheptyl)-formamide]	+	+	+	+	+	+	+	+	+	+	+	+	+	+	+	+	+	+	+	+	Crystallisation of tebuconazole in emulsion [21]: +; Crystallisation of tebuconazole in emulsion [22]: +; Crystallisation of tebuconazole in emulsion [23]: +; Crystallisation of tebuconazole in emulsion [24]: +; Crystallisation of tebuconazole in emulsion [25]: +; Crystallisation of tebuconazole in emulsion [26]: +; Crystallisation of tebuconazole in emulsion [27]: +; Crystallisation of tebuconazole in emulsion [28]: +; Crystallisation of tebuconazole in emulsion [29]: +; Crystallisation of tebuconazole in emulsion [30]: +; Crystallisation of tebuconazole in emulsion [31]: +; Crystallisation of tebuconazole in emulsion [32]: +
CCCCCCCCCCN(C)C=O [N-methyl-N-(n-decyl) formamide]	+	+	+	+	+	+	+	+	+	+	+	+	+	+	+	+	+	+	+	+	Crystallisation of tebuconazole in emulsion [21]: +; Crystallisation of tebuconazole in emulsion [22]: +; Crystallisation of tebuconazole in emulsion [23]: +; Crystallisation of tebuconazole in emulsion [24]: +; Crystallisation of tebuconazole in emulsion [25]: +; Crystallisation of tebuconazole in emulsion [26]: +; Crystallisation of tebuconazole in emulsion [27]: +; Crystallisation of tebuconazole in emulsion [28]: +; Crystallisation of tebuconazole in emulsion [29]: +; Crystallisation of tebuconazole in emulsion [30]: +; Crystallisation of tebuconazole in emulsion [31]: +; Crystallisation of tebuconazole in emulsion [32]: +
CCCCCCCCN(C)C(=O)CC [N-methyl-N-octyl propanamide]	+	+	+	+	+	+	+	−	+	+	−	−	+	+	−	−	+	+	−	−	Crystallisation of tebuconazole in emulsion [21]: +; Crystallisation of tebuconazole in emulsion [22]: −; Crystallisation of tebuconazole in emulsion [23]: −; Crystallisation of tebuconazole in emulsion [24]: −; Crystallisation of tebuconazole in emulsion [25]: +; Crystallisation of tebuconazole in emulsion [26]: −; Crystallisation of tebuconazole in emulsion [27]: −; Crystallisation of tebuconazole in emulsion [28]: −; Crystallisation of tebuconazole in emulsion [29]: +; Crystallisation of tebuconazole in emulsion [30]: −; Crystallisation of tebuconazole in emulsion [31]: −; Crystallisation of tebuconazole in emulsion [32]: −
